Structures are written as SMILES.

The target in this assay is JAK2 (Homo sapiens, UniProt O60674). Briefly: JAK2 Tyrosine Kinase Assay. The format is biochemical. The following applies: list of named compounds; read-out: IC50 in the JAK2 assay. The procedure: JAK2 Tyrosine Kinase Assay
JAK2, sequence (O60674 whole entry): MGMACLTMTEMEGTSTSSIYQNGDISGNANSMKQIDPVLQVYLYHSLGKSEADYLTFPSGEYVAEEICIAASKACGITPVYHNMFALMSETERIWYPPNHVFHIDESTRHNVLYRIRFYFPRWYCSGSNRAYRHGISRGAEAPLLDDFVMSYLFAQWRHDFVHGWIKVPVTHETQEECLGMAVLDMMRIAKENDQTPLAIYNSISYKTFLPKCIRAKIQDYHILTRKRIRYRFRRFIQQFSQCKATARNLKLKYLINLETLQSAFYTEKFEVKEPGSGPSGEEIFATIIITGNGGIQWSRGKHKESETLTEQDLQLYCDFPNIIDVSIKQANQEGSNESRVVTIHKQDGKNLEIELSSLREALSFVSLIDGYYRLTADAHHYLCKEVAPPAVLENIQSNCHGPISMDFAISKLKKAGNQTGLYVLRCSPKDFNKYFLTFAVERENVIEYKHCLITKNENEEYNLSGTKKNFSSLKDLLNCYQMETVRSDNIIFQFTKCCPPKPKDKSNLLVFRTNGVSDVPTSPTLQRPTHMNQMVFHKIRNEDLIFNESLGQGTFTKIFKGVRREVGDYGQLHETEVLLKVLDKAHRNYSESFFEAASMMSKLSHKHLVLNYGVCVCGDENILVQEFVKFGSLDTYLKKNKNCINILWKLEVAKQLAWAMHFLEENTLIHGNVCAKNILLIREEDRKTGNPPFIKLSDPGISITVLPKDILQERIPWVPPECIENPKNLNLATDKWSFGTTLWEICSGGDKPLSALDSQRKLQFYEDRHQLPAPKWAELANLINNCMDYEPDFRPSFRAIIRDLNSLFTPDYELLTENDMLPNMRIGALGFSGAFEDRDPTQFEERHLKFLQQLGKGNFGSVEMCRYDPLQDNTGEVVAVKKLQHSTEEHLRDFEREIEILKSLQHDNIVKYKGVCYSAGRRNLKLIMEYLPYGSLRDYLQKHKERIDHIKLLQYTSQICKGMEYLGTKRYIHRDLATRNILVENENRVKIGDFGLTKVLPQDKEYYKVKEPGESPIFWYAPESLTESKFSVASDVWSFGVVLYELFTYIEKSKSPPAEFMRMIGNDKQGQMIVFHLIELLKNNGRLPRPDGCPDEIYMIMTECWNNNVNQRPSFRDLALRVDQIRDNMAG
The assays were performed in V-bottom 384-well plates. […] The reaction was initiated by the combination of JAK2 with substrates and test compounds. The reaction was incubated at room temperature for 60 min. and terminated by adding 45 μl of 35 mM EDTA to each sample. The reaction mixture was analyzed on the Caliper LabChip 3000 by electrophoretic separation of the fluorescent substrate and phosphorylated product. […] Compounds were dissolved at 10 mM in dimethylsulfoxide (DMSO) and evaluated at eleven concentrations, each in duplicate. IC50 values were derived by non-linear regression analysis
With `Cc1cc(Nc2nc(N3CCN(C(=O)Cc4ccccc4Cl)CC3)nn3cccc23)n[nH]1` [2-(4-((2-chlorophenyl)acetyl)-1-piperazinyl)-N-(5-methyl-1H-pyrazol-3-yl)pyrrolo[2,1-f][1,2,4]triazin-4-amine], the IC50 is not above 5 nM.

Take `Cc1cc(Nc2nc(N3CCN(C(=O)Cc4cccc(OC(F)(F)F)c4)CC3)nn3cccc23)n[nH]1` [N-(5-methyl-1H-pyrazol-3-yl)-2-(4-((3-(trifluoromethoxy)phenyl)acetyl)-1-piperazinyl)pyrrolo[2,1-f][1,2,4]triazin-4-amine]: the IC50 is not above 5 nM.

As to `Cc1cc(Nc2nc(N3CCN(C(=O)Cc4ccccc4C(F)(F)F)CC3)nn3cccc23)n[nH]1` [N-(5-methyl-1H-pyrazol-3-yl)-2-(4-((2-(trifluoromethyl)phenyl)acetyl)-1-piperazinyl)pyrrolo[2,1-f][1,2,4]triazin-4-amine], the IC50 was not above 5 nM.

With `Cc1cc(Nc2nc(N3CCN(C(=O)[C@](C)(O)c4ccc(F)cc4)CC3)nn3cccc23)n[nH]1` [(2R)-2-(4-fluorophenyl)-1-(4-(4-((5-methyl-1H-pyrazol-3-yl)amino)pyrrolo[2,1-f][1,2,4]triazin-2-yl)-1-piperazinyl)-1-oxo-2-propanol], the IC50 is not above 5 nM.

Take `Cc1cc(Nc2nc(N3CCN(C(=O)CC4CCCCC4)CC3)nn3cccc23)n[nH]1` [2-(4-(cyclohexylacetyl)-1-piperazinyl)-N-(5-methyl-1H-pyrazol-3-yl)pyrrolo[2,1-f][1,2,4]triazin-4-amine]: the IC50 was not above 5 nM.

In the case of `Cc1csc(C(=O)N2CCN(c3nc(Nc4cc(C)[nH]n4)c4cccn4n3)CC2)c1` [N-(5-methyl-1H-pyrazol-3-yl)-2-(4-((4-methyl-2-thienyl)carbonyl)-1-piperazinyl)pyrrolo[2,1-f][1,2,4]triazin-4-amine], the IC50 was not above 5 nM.

Regarding `CC[C@H](C(=O)N1CCN(c2nc(Nc3cc(C)[nH]n3)c3cccn3n2)CC1)c1ccccc1` [N-(5-methyl-1H-pyrazol-3-yl)-2-(4-((2S)-2-phenylbutanoyl)-1-piperazinyl)pyrrolo[2,1-f][1,2,4]triazin-4-amine], the IC50 was not above 5 nM.

In the case of `Cc1cc(Nc2nc(N3CCN(C(=O)C4(C#N)CC4)CC3)nn3cccc23)n[nH]1` [1-((4-(4-((5-methyl-1H-pyrazol-3-yl)amino)pyrrolo[2,1-f][1,2,4]triazin-2-yl)-1-piperazinyl)carbonyl)cyclopropanecarbonitrile], the IC50 is not above 5 nM.

Turning to `Cc1cc(Nc2nc(N3CCN(C(=O)c4ccccc4NC(=O)OC(C)(C)C)CC3)nn3cccc23)n[nH]1` [tert-butyl (2-((4-(4-((5-methyl-1H-pyrazol-3-yl)amino)pyrrolo[2,1-f][1,2,4]triazin-2-yl)-1-piperazinyl)carbonyl)phenyl)carbamate], the IC50 is not above 5 nM.

Take `Cc1cc(Nc2nc(N3CCN(C(=O)C4(c5c(F)cccc5Cl)CCCCC4)CC3)nn3cccc23)n[nH]1` [2-(4-((1-(2-chloro-6-fluorophenyl)cyclohexyl)carbonyl)-1-piperazinyl)-N-(5-methyl-1H-pyrazol-3-yl)pyrrolo[2,1-f][1,2,4]triazin-4-amine]: the IC50 was not above 5 nM.

On to `Cc1cc(Nc2nc(N3CCN(C(=O)c4sc5ccccc5c4Cl)CC3)nn3cccc23)n[nH]1` [2-(4-((3-chloro-1-benzothiophene-2-yl)carbonyl)-1-piperazinyl)-N-(5-methyl-1H-pyrazol-3-yl)pyrrolo[2,1-f][1,2,4]triazin-4-amine], for which the IC50 was not above 5 nM.

With `Cc1cc(Nc2nc(N3CCN(C(=O)c4cc(C)oc4C)CC3)nn3cccc23)n[nH]1` [2-(4-(2,5-dimethyl-3-furoyl)-1-piperazinyl)-N-(5-methyl-1H-pyrazol-3-yl)pyrrolo[2,1-f][1,2,4]triazin-4-amine], the IC50 is not above 5 nM.

On to `Cc1cc(Nc2nc(N3CCN(C(=O)c4cc(F)c(F)cc4Cl)CC3)nn3cccc23)n[nH]1` [2-(4-(2-chloro-4,5-difluorobenzoyl)-1-piperazinyl)-N-(5-methyl-1H-pyrazol-3-yl)pyrrolo[2,1-f][1,2,4]triazin-4-amine], for which the IC50 was not above 5 nM.

On to `Cc1cc(Nc2nc(N3CCN(C(=O)C(O)c4ccc(F)cc4)CC3)nn3cccc23)n[nH]1` (centres unmarked) [1-(4-fluorophenyl)-2-(4-(4-((5-methyl-1H-pyrazol-3-yl)amino)pyrrolo[2,1-f][1,2,4]triazin-2-yl)-1-piperazinyl)-2-oxoethanol], for which the IC50 was not above 5 nM.

Turning to `Cc1cc(Nc2nc(N3CCN(C(=O)C(c4ccc(Cl)cc4)C(C)C)CC3)nn3cccc23)n[nH]1` (centres unmarked) [2-(4-(2-(4-chlorophenyl)-3-methylbutanoyl)-1-piperazinyl)-N-(5-methyl-1H-pyrazol-3-yl)pyrrolo[2,1-f][1,2,4]triazin-4-amine], the IC50 is not above 5 nM.

Take `Cc1cc(Nc2nc(N3CCN(C(=O)c4ccc(Cl)cc4Cl)CC3)nn3cccc23)n[nH]1` [2-(4-(2,4-dichlorobenzoyl)-1-piperazinyl)-N-(5-methyl-1H-pyrazol-3-yl)pyrrolo[2,1-f][1,2,4]triazin-4-amine]: the IC50 is not above 5 nM.

With `Cc1cc(Nc2nc(N3CCN(C(=O)Cc4cccc(C(F)(F)F)c4)CC3)nn3cccc23)n[nH]1` [N-(5-methyl-1H-pyrazol-3-yl)-2-(4-((3-(trifluoromethyl)phenyl)acetyl)-1-piperazinyl)pyrrolo[2,1-f][1,2,4]triazin-4-amine], the IC50 is not above 5 nM.

For `Cc1cc(Nc2nc(N3CCN(C(=O)C4CC(=O)c5ccccc54)CC3)nn3cccc23)n[nH]1` (centres unmarked) [3-((4-(4-((5-methyl-1H-pyrazol-3-yl)amino)pyrrolo[2,1-f][1,2,4]triazin-2-yl)-1-piperazinyl)carbonyl)-1-indanone], the IC50 is not above 5 nM.

As to `Cc1ccc(C(=O)N2CCN(c3nc(Nc4cc(C)[nH]n4)c4cccn4n3)CC2)cn1` [N-(5-methyl-1H-pyrazol-3-yl)-2-(4-((6-methyl-3-pyridinyl)carbonyl)-1-piperazinyl)pyrrolo[2,1-f][1,2,4]triazin-4-amine], the IC50 was not above 5 nM.

Regarding `Cc1cc(Nc2nc(N3CCN(C(=O)C4(c5ccccc5)CCCC4)CC3)nn3cccc23)n[nH]1` [N-(5-methyl-1H-pyrazol-3-yl)-2-(4-((1-phenylcyclopentyl)carbonyl)-1-piperazinyl)pyrrolo[2,1-f][1,2,4]triazin-4-amine], the IC50 was not above 5 nM.

As to `Cc1cc(Nc2nc(N3CCN(C(=O)[C@@H](O)c4ccccc4)CC3)nn3cccc23)n[nH]1` [(1S)-2-(4-(4-((5-methyl-1H-pyrazol-3-yl)amino)pyrrolo[2,1-f][1,2,4]triazin-2-yl)-1-piperazinyl)-2-oxo-1-phenylethanol], the IC50 was not above 5 nM.

For the compound `COc1ccc(C(=O)N2CCN(c3nc(Nc4cc(C)[nH]n4)c4cccn4n3)CC2)cc1` [2-(4-(4-methoxybenzoyl)-1-piperazinyl)-N-(5-methyl-1H-pyrazol-3-yl)pyrrolo[2,1-f][1,2,4]triazin-4-amine], the IC50 was not above 5 nM.

Turning to `Cc1cc(Nc2nc(N3CCN(C(=O)Cc4ccccc4Br)CC3)nn3cccc23)n[nH]1` [2-(4-((2-bromophenyl)acetyl)-1-piperazinyl)-N-(5-methyl-1H-pyrazol-3-yl)pyrrolo[2,1-f][1,2,4]triazin-4-amine], the IC50 is not above 5 nM.

For the compound `CO[C@@H](C(=O)N1CCN(c2nc(Nc3cc(C)[nH]n3)c3cccn3n2)CC1)c1ccccc1` [2-(4-((2R)-2-methoxy-2-phenylacetyl)-1-piperazinyl)-N-(5-methyl-1H-pyrazol-3-yl)pyrrolo[2,1-f][1,2,4]triazin-4-amine], the IC50 is not above 5 nM.

For the compound `Cc1cc(Nc2nc(N3CCN(C(=O)c4cnco4)CC3)nn3cccc23)n[nH]1` [N-(5-methyl-1H-pyrazol-3-yl)-2-(4-(1,3-oxazol-5-ylcarbonyl)-1-piperazinyl)pyrrolo[2,1-f][1,2,4]triazin-4-amine], the IC50 is not above 5 nM.

`Cc1cc(Nc2nc(N3CCN(C(=O)c4ccc(C(F)(F)F)cc4)CC3)nn3cccc23)n[nH]1` [N-(5-methyl-1H-pyrazol-3-yl)-2-(4-(4-(trifluoromethyl)benzoyl)-1-piperazinyl)pyrrolo[2,1-f][1,2,4]triazin-4-amine]: the IC50 is not above 5 nM.

Turning to `Cc1cc(Nc2nc(N3CCN(C(=O)COCc4ccccc4)CC3)nn3cccc23)n[nH]1` [2-(4-((benzyloxy)acetyl)-1-piperazinyl)-N-(5-methyl-1H-pyrazol-3-yl)pyrrolo[2,1-f][1,2,4]triazin-4-amine], the IC50 is not above 5 nM.

In the case of `Cc1cc(Nc2nc(N3CCN(C(=O)c4cc(Cl)ccc4Cl)CC3)nn3cccc23)n[nH]1` [2-(4-(2,5-dichlorobenzoyl)-1-piperazinyl)-N-(5-methyl-1H-pyrazol-3-yl)pyrrolo[2,1-f][1,2,4]triazin-4-amine], the IC50 was not above 5 nM.

Consider `CCC(C)(C)C(=O)N1CCN(c2nc(Nc3cc(C)[nH]n3)c3cccn3n2)CC1` [2-(4-(2,2-dimethylbutanoyl)-1-piperazinyl)-N-(5-methyl-1H-pyrazol-3-yl)pyrrolo[2,1-f][1,2,4]triazin-4-amine], for which the IC50 was not above 5 nM.

`Cc1cc(Nc2nc(N3CCN(C(=O)C4Cc5ccccc54)CC3)nn3cccc23)n[nH]1` (centres unmarked) [2-(4-(bicyclo[4.2.0]octa-1,3,5-trien-7-ylcarbonyl)-1-piperazinyl)-N-(5-methyl-1H-pyrazol-3-yl)pyrrolo[2,1-f][1,2,4]triazin-4-amine]: the IC50 was not above 5 nM.

As for `Cc1cc(Nc2nc(N3CCN(C(=O)Cc4c(F)cccc4F)CC3)nn3cccc23)n[nH]1` [2-(4-((2,6-difluorophenyl)acetyl)-1-piperazinyl)-N-(5-methyl-1H-pyrazol-3-yl)pyrrolo[2,1-f][1,2,4]triazin-4-amine], the IC50 is not above 5 nM.

Regarding `Cc1cc(Nc2nc(N3CCN(C(=O)Cc4ccc(OC(F)(F)F)cc4)CC3)nn3cccc23)n[nH]1` [N-(5-methyl-1H-pyrazol-3-yl)-2-(4-((4-(trifluoromethoxy)phenyl)acetyl)-1-piperazinyl)pyrrolo[2,1-f][1,2,4]triazin-4-amine], the IC50 was not above 5 nM.

The record behind these values is patent US8445676B2, “Pyrrolotriazine kinase inhibitors” (Bristol-Myers Squibb Company, priority 2008, dated 2013).
